{"source": "the NIST ThermoML archive (doi:10.1016/j.jct.2013.08.012)", "assay": "molar enthalpy of vaporization or sublimation", "conditions": "298.15 K; Crystal; Static calorimetry", "note": "± gives the expanded uncertainty stated by the source.", "data": [{"smiles": "O=C1Cc2ccccc2O1", "note": "[2-coumaranone]", "values": [{"measurement": "molar enthalpy", "result": "18.8 ± 0.406", "unit": "kcal/mol"}]}, {"smiles": "O=C1COc2ccccc21", "note": "[3-coumaranone]", "values": [{"measurement": "molar enthalpy", "result": "20.5 ± 0.406", "unit": "kcal/mol"}]}]}
